The values that follow are results of earlier work, collected in patent US11732223B2, “Solvent compositions for removing petroleum residue from a substrate and methods of use thereof” (priority 2004, dated 2023).

The test system of the data set is rats.

As for `CCCCOCCOCCO` [butyl carbitol], the “oral LD50” value (oral, rats) is 6,560 mg/kg. The “toxicity rating on the Hodge and Sterner scale” value (rat, in vivo) is 5.
